Assay results from patent US10179769B2, “Histone demethylase inhibitors” (CELGENE QUANTICEL RESEARCH, INC., priority 2012, dated 2019).

What follows are substances tested against JMJD2C (Homo sapiens (Human), UniProt Q9H3R0) (assay: JMJD2C TR-FRET enzyme inhibition assay). Conditions: H3K9me3-biotin peptide.
Format: biochemical
Text: This assay determines the ability of a test compound to inhibit Jarid1A, Jarid1B, and JMJD2C demethylase activity. Baculovirus expressed Jarid1A (GenBank Accession #NM_001042603, AA1-1090) was purchased from BPS Bioscience (Cat#50110). Baculovirus expressed Jarid1B (GenBank Accession #NM_006618, AA 2-751) was purchased from BPS Bioscience (Cat #50121) or custom made by MolecularThroughput. Baculovirus-expressed JMJD2C (GenBank Accession #BC143571, AA 2-372) was purchased from BPS Bioscience (Cat#50105).
The ability of test compounds to inhibit the activity of JMJD2C was determined in 384-well plate format under the following reaction conditions: 0.3 nM JMJD2C, 300 nM H3K9me3-biotin labeled peptide (Anaspec cat #64360), 2 μM alpha-ketoglutaric acid in assay buffer of 50 mM HEPES, pH7.3, 0.005% Brij35, 0.5 mM TCEP, 0.2 mg/ml BSA, 50 μM sodium L-ascorbate, and 2 μM ammonium iron(II) sulfate. Reaction product was determined quantitatively by TR-FRET after the addition of detection reagent Phycolink Streptavidin-allophycocyanin (Prozyme) and Europium-anti-di-methylated histone H3 lysine 9 (H3K9me2) antibody (PerkinElmer) in the presence of 5 mM EDTA in LANCE detection buffer (PerkinElmer) at a final concentration of 50 nM and 1 nM, respectively.
The reaction mixture was incubated at room temperature for 30 min, and terminated by the addition of 6 μl of 5 mM EDTA in LANCE detection buffer containing 100 nM Phycolink Streptavidin-allophycocyanin and 2 nM Europium-anti-H3K9me2 antibody. Plates were read by EnVisionMultilabel Reader in TR-FRET mode (excitation at 320 nm, emission at 615 nm and 665 nm) after 1 hr incubation at rt. A ratio was calculated (665/615) for each well and fitted to determine inhibition constant (IC50).

JMJD2C, sequence (Q9H3R0 2-372): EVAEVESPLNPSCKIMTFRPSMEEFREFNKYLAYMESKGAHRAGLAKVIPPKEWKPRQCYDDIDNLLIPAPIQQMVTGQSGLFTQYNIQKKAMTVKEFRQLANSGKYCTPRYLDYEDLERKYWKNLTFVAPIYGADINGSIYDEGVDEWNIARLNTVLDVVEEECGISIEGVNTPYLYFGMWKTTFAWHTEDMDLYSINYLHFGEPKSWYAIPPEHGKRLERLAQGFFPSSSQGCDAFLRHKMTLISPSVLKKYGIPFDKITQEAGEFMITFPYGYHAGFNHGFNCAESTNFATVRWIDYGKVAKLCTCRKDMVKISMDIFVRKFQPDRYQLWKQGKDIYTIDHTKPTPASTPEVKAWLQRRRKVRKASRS

Row | Substance | IC50
1 | 3-{[(6-chloro-1,2,3,4-tetrahydronaphthalen- 1-yl)methyl]-amino}pyridine-4- carboxylic acid [Example 68] | 100 to 1000 nM
2 | 3-{[(6-chloro-1-hydroxy-1,2,3,4- tetrahydronaphthalen-1-yl)methyl]amino} pyridine-4-carboxylic acid [Example 67] | 100 to 1000 nM
3 | 3-{[(7-fluoro-3,4-dihydro-2H-chromen-4- yl)methyl]-amino}pyridine-4-carboxylic acid [Example 65] | < 100 nM
